Columns and labels:
[1] = Laser diffraction particle size analysis (Mastersizer 2000); type: physicochemical; conditions: continuous flow precipitator, into isopropanol; coated samples 10% protein loading
Method: Laser diffraction particle size analysis was carried out on bioactive coated particles using a Mastersizer 2000. Briefly, enough PCMC was added to the sample holder of the Mastersizer 2000 containing 60 ml of 2-propanol to ensure a laser obscuration of between 10 and 20%. Measurements were then taken using a previously set up Standard Operating Procedure. d(0.1)(μm)=10% of the particles are below this particle size d(0.5)(μm)=50% of the particles are above and below this particle size d(0.9)(μm)=90% of the particles are below this particle size. Span=d(0.9)−d(0.1)/d(0.5)
Span gives a good indication of population homogeneity.

resistance arteries [2] = experiment: Ex-vivo insulin bioactivity, wire myograph; type: cell-based, Wistar rats; conditions: pre-constriction with thromboxane mimetic [U44169]
Method: A pressure myograph which allowed luminal application of drug provided initial measures of sensitivity. In the pressure system, arteries mounted on opposing glass cannula (outer dimension 80 μm) were gradually pressurized from <5 mmHg to 40 mmHg over 15 mins and held for 15 mins more before starting the assay. Responses were measured using proprietary video analysis software (MyoView). […] The arteries were then exposed to increasing concentrations of insulin either directly into the bath (wire) or by gradual infusion directly into the lumen via a fetal microcannulae inserted to the tip of the glass mounting cannula, at a constant pressure (pressure). Following pre-constriction with thromboxane mimetic [U44169] the insulin-mediated vasorelaxation profile is typical for insulin and exerts its effect mainly via the activation of nitric oxide synthase and the subsequent release of endothelial nitric oxide.

[3] = Zeta potential (Malvern Zetasizer, suspension in acetonitrile); type: physicochemical; conditions: for Zeta potential (sign): dilute suspension in acetonitrile; for Zeta potential (mV): microcrystals in non-aqueous medium, precipitation pH 5.59-7.02 as given per sample
Description: The core microcrystal and protein coating that are characteristic of protein coated coated microcrystals arise from a single continuous self-assembly process. In order to assess whether electrostatic binding of the bioactive molecule to pre-formed microcrystals might be important in the mechanism of this process it was of interest to measure the surface potential of the microcrystals in a non-aqueous medium. The liquid layer surrounding a charged particle exists as two parts; an inner region (Stern layer) where the ions are strongly bound and an outer (diffuse) region where they are less firmly associated. Within the diffuse layer there is a notional boundary inside which the ions and particles form a stable entity. When a particle moves (e.g. due to gravity), ions within the boundary move too. […] The potential at this boundary (surface of hydrodynamic shear) is the zeta potential. The sign and magnitude of the zeta potential depends on the surface charge of the particle with for example a negative zeta potential indicating a particle with an overall negative charge. A Malvern Zetasizer that employs laser Doppler velocimetry was used to measure the sign and approximate magnitude of the Zeta potential of microcrystals produced by precipitation of various core materials at fixed pH. The measurements were made on pre-prepared microcrystals or protein coated microcrystals suspended as dilute suspension in acetonitrile. A polystyrene latex was used to calibrate the machine. […] If electrostatic binding is important to the mechanism of formation it would be expected that only biomolecules with an overall positive charge would be expected to form a coating on these negatively charged materials. The charge on a protein is a function of pH. It will be negative at pH values above the pI and positive at a pH below the pI.

[4] = above 80% RH
Method: The uptake of water by bioactive molecule coated particles produced by the present co-precipitation process and of the core material precipitated alone under a controlled humidified environment was carried out by Dynamic Vapor Sorption (DVS) using Dynamic Vapor Sorption 1000 (Surface Measurement Systems).
The Experimental set-up was as follows.
The DVS used a 2 full-cycle experimental Special Automatic Operation (SAO) protocol that included an initial drying stage at 0% Relative Humidity (RH). […] This was proceeded by an identical desorption cycle down to 0% RH. This cycle was repeated. The following criteria was used to control the DVS stage change: either the rate of change of the increase in mass i.e. dm/dt dropped to 0.002, or the maximum stage time was 2000 minutes.
Prior to introduction of the sample, the balance was tared and the instrument was allowed to equilibrate until a stable baseline was observed. The particles were then loaded and the initial weight recorded, followed by switching on the SAO. The experiment ran until the completion of the SAO.

resistance arteries [5] = experiment: Ex-vivo insulin bioactivity, pressure myograph; type: cell-based, Wistar rats; conditions: mean of 3 (SD)
Method: Insulin bioactivity assays were carried out on resistance arteries ([…]) isolated from 12 week old male Wistar rats studied in heated (37° C.) and gassed (95% O2/5% CO2) physiological salt solution (PSS) to achieve a pH of 7.4. A pressure myograph which allowed luminal application of drug provided initial measures of sensitivity. In the pressure system, arteries mounted on opposing glass cannula (outer dimension 80 μm) were gradually pressurized from <5 mmHg to 40 mmHg over 15 mins and held for 15 mins more before starting the assay. Responses were measured using proprietary video analysis software (MyoView). The pressure myograph is able to detect the vasodilatory effect of insulin at very low concentrations (1×10^−10 M).

[6] = HPLC analysis of insulin after reconstitution; conditions: retained in the same aqueous solution used for co-precipitation

Span [1]	d(0.5)/microns [1]	Zeta potential (sign) [3]	Zeta potential (mV) [3]	Compound	insulin mediated vasorelaxation (resistance arteries [2])	water uptake [4]	insulin mediated relaxation to noradrenaline pre-constriction (100=100% constriction) (resistance arteries [5]; Log M −9)	insulin mediated relaxation to noradrenaline pre-constriction (100=100% constriction) (resistance arteries [5]; Log M −10)	insulin mediated relaxation to noradrenaline pre-constriction (100=100% constriction) (resistance arteries [5]; Log M −11)	time to significant changes [6]
1.32	21.810 microns	negative	−19.6 mV	CC(C)C(N)C(=O)O (racemic) [D,L-valine]	no bioactivity					
1.72	58.370 microns	negative	−49.7 mV	NCC(=O)O [Glycine, glycine]		start to take up appreciable amounts of water				
1.88	36.373 microns	negative	−54.8 mV	NC(=O)CC[C@H](N)C(=O)O [L-glutamine]						
				Commercial Insulin: USP bovine pancreas insulin control			65 (23) %	84 (7) %	100 (0) %	less than 30 minutes

Source: patent US20180008542A1, “PHARMACEUTICAL COMPOSITION” (priority 2003, published 2018)
